Reference: patent publication US9340590B2 (priority 2011, dated 2016)
Read-outs that look alike come from different tables or passages of the source. Positions of bridges follow the written chain, without caps; N, C: chain ends. Residues, ends and D or L forms follow the SMILES beside them.

Molecular target: hNav1.7 (Homo sapiens, UniProt Q15858)
Assay: cell-based
Type: cell-based
Settings: read-out: IWQ Use Nav1.7

Sequence of hNav1.7 (Q15858 whole entry, looked up): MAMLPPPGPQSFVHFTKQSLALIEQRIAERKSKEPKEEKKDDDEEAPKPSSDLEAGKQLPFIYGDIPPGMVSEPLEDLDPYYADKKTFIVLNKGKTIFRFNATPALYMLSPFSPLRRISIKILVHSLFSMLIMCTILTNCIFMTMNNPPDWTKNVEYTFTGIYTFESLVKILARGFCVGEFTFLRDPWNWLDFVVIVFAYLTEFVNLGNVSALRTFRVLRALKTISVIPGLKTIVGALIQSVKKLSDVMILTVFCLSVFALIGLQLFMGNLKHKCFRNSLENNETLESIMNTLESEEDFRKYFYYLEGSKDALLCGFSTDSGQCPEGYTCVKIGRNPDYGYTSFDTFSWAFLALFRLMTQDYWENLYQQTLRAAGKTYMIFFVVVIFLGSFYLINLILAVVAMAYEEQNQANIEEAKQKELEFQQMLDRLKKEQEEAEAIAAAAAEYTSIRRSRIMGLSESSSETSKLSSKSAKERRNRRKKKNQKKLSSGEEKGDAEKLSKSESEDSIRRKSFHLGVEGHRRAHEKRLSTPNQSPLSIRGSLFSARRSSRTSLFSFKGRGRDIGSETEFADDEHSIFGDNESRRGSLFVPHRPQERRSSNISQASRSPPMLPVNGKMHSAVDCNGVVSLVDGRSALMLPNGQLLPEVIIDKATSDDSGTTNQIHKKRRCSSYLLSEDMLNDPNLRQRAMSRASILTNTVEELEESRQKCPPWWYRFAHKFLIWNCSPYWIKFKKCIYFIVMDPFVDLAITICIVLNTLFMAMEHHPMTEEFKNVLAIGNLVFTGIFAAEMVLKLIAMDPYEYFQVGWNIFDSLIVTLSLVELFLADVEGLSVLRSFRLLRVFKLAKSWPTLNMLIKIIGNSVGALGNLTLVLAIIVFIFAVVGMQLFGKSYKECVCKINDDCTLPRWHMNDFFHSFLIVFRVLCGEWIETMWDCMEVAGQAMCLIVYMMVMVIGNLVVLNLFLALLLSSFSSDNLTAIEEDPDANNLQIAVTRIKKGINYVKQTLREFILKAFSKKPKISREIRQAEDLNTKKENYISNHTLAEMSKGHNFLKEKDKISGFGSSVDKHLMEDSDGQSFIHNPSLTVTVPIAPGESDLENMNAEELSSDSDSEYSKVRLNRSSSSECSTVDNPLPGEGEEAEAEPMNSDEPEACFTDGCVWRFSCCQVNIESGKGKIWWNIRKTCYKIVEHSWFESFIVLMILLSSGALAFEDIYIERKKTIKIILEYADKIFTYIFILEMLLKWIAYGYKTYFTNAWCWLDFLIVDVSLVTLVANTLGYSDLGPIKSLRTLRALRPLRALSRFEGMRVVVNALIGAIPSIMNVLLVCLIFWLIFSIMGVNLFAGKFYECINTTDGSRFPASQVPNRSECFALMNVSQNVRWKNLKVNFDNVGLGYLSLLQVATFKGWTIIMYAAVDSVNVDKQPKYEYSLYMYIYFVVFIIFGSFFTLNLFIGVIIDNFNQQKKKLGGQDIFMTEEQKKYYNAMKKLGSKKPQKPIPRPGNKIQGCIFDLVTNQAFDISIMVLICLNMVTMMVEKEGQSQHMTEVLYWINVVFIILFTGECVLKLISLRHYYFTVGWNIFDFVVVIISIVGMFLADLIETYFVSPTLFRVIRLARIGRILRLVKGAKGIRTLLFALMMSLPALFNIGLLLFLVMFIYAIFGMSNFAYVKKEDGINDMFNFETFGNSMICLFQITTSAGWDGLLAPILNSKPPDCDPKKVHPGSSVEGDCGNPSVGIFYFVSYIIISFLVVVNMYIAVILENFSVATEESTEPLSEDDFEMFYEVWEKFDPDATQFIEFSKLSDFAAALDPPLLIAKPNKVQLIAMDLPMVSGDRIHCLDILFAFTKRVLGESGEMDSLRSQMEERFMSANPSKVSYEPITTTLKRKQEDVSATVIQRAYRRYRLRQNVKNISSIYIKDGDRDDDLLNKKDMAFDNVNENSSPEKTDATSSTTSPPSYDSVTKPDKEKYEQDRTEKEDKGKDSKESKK

## CC[C@H](C)[C@@H]1NC(=O)[C@@H]2CSSC[C@@H]3NC(=O)[C@H](C(C)C)NC(=O)[C@H](CC(C)C)NC(=O)[C@H](CC(N)=O)NC(=O)[C@@H]4CCCN4C(=O)[C@H](CCCNC(=N)N)NC(=O)[C@H](CSSC[C@H](NC(=O)[C@@H](N)CC(=O)O)C(=O)N[C@@H](CC(C)C)C(=O)NCC(=O)N[C@@H](CCCNC(=N)N)C(=O)N[C@@H](CCSC)C(=O)N[C@@H](CCCNC(=N)N)C(=O)N[C@@H](CCCCN)C(=O)N2)NC(=O)[C@H](CSSC[C@@H](C(=O)N[C@@H](CCCCN)C(=O)N[C@@H](Cc2ccc(O)cc2)C(=O)N[C@H](C(=O)N[C@@H](Cc2ccccc2)C(N)=O)C(C)C)NC(=O)[C@H](Cc2c[nH]c4ccccc24)NC(=O)[C@H](CCCCN)NC(=O)[C@H](Cc2c[nH]cn2)NC(=O)[C@H]([C@@H](C)O)NC(=O)[C@H](CCCNC(=N)N)NC(=O)[C@H](CO)NC3=O)NC(=O)[C@H](CCCCN)NC(=O)[C@H](CC(=O)O)NC(=O)[C@H](CC(N)=O)NC(=O)[C@H](CC(=O)O)NC(=O)[C@@H]2CCCN2C1=O [SEQ ID NO: 156] (H-DCLGRMRKCIPDNDKCCRPNLVCSRTHKWCKYVF-NH2; disulfide 2-17, 9-23, 16-30)
IonWorks Quattro, clamped to −110 mV, depolarized to −10 mV, 5 min after compound, n=2
  IC50: 3630 nM

## CC[C@H](C)[C@@H]1NC(=O)[C@@H]2CSSC[C@@H]3NC(=O)[C@H](C(C)C)NC(=O)[C@H](CC(C)C)NC(=O)[C@H](CC(N)=O)NC(=O)[C@@H]4CCCN4C(=O)[C@H](CCCNC(=N)N)NC(=O)[C@H](CSSC[C@H](NC(=O)[C@@H](N)CC(=O)O)C(=O)N[C@@H](CC(C)C)C(=O)N[C@@H](Cc4c[nH]c5ccccc45)C(=O)N[C@@H](Cc4ccccc4)C(=O)N[C@@H](CCSC)C(=O)N[C@@H](CCCNC(=N)N)C(=O)N[C@@H](CCCCN)C(=O)N2)NC(=O)[C@H](CSSC[C@@H](C(=O)N[C@@H](CCCCN)C(=O)N[C@@H](Cc2ccc(O)cc2)C(=O)N[C@H](C(=O)N[C@@H](Cc2ccccc2)C(N)=O)C(C)C)NC(=O)[C@H](Cc2c[nH]c4ccccc24)NC(=O)[C@H](CCCCN)NC(=O)[C@H](Cc2c[nH]cn2)NC(=O)[C@H]([C@@H](C)O)NC(=O)[C@H](CCCNC(=N)N)NC(=O)[C@H](CO)NC3=O)NC(=O)[C@H](CCCCN)NC(=O)[C@H](CC(=O)O)NC(=O)[C@H](CC(N)=O)NC(=O)[C@H](CC(=O)O)NC(=O)[C@@H]2CCCN2C1=O [SEQ ID NO: 169] (H-DCLWFMRKCIPDNDKCCRPNLVCSRTHKWCKYVF-NH2; disulfide 2-17, 9-23, 16-30)
  IC50: 50 nM

## CC[C@H](C)[C@@H]1NC(=O)[C@@H]2CSSC[C@@H]3NC(=O)[C@H](C(C)C)NC(=O)[C@H](CC(C)C)NC(=O)[C@H](CC(N)=O)NC(=O)[C@@H]4CCCN4C(=O)[C@H](CCCNC(=N)N)NC(=O)[C@H](CSSC[C@H](NC(=O)[C@@H](N)CC(=O)O)C(=O)N[C@@H](CC(C)C)C(=O)NCC(=O)N[C@@H](Cc4ccccc4)C(=O)N[C@@H](CCSC)C(=O)N[C@@H](C)C(=O)N[C@@H](CCCCN)C(=O)N2)NC(=O)[C@H](CSSC[C@@H](C(=O)N[C@@H](CCCCN)C(=O)N[C@@H](Cc2ccc(O)cc2)C(=O)N[C@H](C(=O)N[C@@H](Cc2ccccc2)C(N)=O)C(C)C)NC(=O)[C@H](Cc2c[nH]c4ccccc24)NC(=O)[C@H](CCCCN)NC(=O)[C@H](Cc2c[nH]cn2)NC(=O)[C@H]([C@@H](C)O)NC(=O)[C@H](CCCNC(=N)N)NC(=O)[C@H](CO)NC3=O)NC(=O)[C@H](CCCCN)NC(=O)[C@H](CC(=O)O)NC(=O)[C@H](CC(N)=O)NC(=O)[C@H](CC(=O)O)NC(=O)[C@@H]2CCCN2C1=O [[Ala7]GpTx-1(1-34)] (H-DCLGFMAKCIPDNDKCCRPNLVCSRTHKWCKYVF-NH2; disulfide 2-17, 9-23, 16-30)
IonWorks Quattro, use-dependent block, hNav1.7
  IC50: 940 nM
